Experimental data from patent US5312622A, “Acaricidal compositions and process for preparing same” (Richter Gedeon Vegyeszeti Gyar Rt., priority 1992, dated 1994).

How the values were obtained:
Varroa jacobsoni = assay: Treatment of Varroa jacobsoni-infected bee families in hives, number of perished mites (Example 38); assay type: in vivo, Varroa jacobsoni mites on Apis mellifera
Procedure: Three families of bees, being present in good condition on nine frames, were infected with `Varroa jacobsoni` to a medium extent, then treated three times, on every third day with the cell-free fermentation broth prepared as described in Example 8 a). Each time, 60 ml of the cell-free fermentation broth prepared as described in Example 8 a) was evenly sprayed by using an airpump spraying device on the honeycomb surfaces and the bees swarming on such surfaces. In addition, each bee family was exposed to the effect of a smoking strip containing 30 mg of amitrase active agent (ANTIVAR for veterinary use) on the third day after the last treatment.
Three other bee families used as control were treated only with ANTIVAR (30 mg of amitrase) in the periods of treatments by the fermentation broth prepared in Example 8 a). Then the number of perished mites and bees inside the hive was counted and registered. Also, the general condition and behavior of the families and the queen-bee were observed.
A tray made of aluminum and provided with a 5 mm high folded rim was placed on the floor-plate of the bee-hives. In case of necessity, the tray could be removed or replaced through an appropriately shaped opening made in the plane of the floor-plate, without the need to open the bee-hive itself.
Under the term of "inhabited strip of the honeycomb" we mean the area stretching between two adjacent sections of the honeycomb was meant where at least 70 to 80% of opposite surfaces of the honeycomb were covered by bees.
By each treatment, 60 ml of cell-free undiluted fermentation broth, prepared as described in Example 8a) and kept at room temperature, were sprayed by using a manually operated air-jet device onto the entire surface of nine frames holding three families of bees (i.e. onto a surface of 27 216 cm^2 per family). The bees covered the honeycomb surface quite evenly during the spraying. The smoking strip containing the amitrase active agent (ANTIVAR) used as control was bent in a "V"-form and placed onto the aluminum tray, then lit and pushed inside the bee-hive. The exit opening was kept closed for one hour.
a) The number of perished mites was registered in the 24th, 48th and 72nd hour after treatments.
Number of perished Varroa jacobsoni mites each per bee family after treatments carried out every 3rd day, 3 times altogether by using the cell-free fermentation broth prepared as described in Example 8a) followed by a treatment with amitrase
Number of perished "Varroa jacobsoni" mites each per bee family after treatment in every third day, 4 times altogether by using 30 mg of amitrase per treatment (control)

Apis mellifera = conditions: bee; comparison value, no test described; cited from earlier work

## Cc1ccc(N=CN(C)C=Nc2ccc(C)cc2C)c(C)c1 [amitrase]
Varroa jacobsoni; amitrase-treating, as shown in example 38
  effect: < 100%
Varroa jacobsoni; control group, 4th amitrase treatment (30 mg), 24 h after treatment, bee family No. 1
  Number of perished mites: 57
Varroa jacobsoni; control group, 4th amitrase treatment (30 mg), 24 h after treatment, bee family No. 2
  Number of perished mites: 55
Varroa jacobsoni; control group, 4th amitrase treatment (30 mg), 24 h after treatment, bee family No. 3
  Number of perished mites: 32
Varroa jacobsoni; control group, 4th amitrase treatment (30 mg), 48 h after treatment, bee family No. 1
  Number of perished mites: 4
Varroa jacobsoni; control group, 4th amitrase treatment (30 mg), 48 h after treatment, bee family No. 2
  Number of perished mites: 0
Varroa jacobsoni; control group, 4th amitrase treatment (30 mg), 48 h after treatment, bee family No. 3
  Number of perished mites: 4
Varroa jacobsoni; control group, 4th amitrase treatment (30 mg), 72 h after treatment, bee family No. 1
  Number of perished mites: 1
Varroa jacobsoni; control group, 4th amitrase treatment (30 mg), 72 h after treatment, bee family No. 2
  Number of perished mites: 0
Varroa jacobsoni; control group, 4th amitrase treatment (30 mg), 72 h after treatment, bee family No. 3
  Number of perished mites: 1
Varroa jacobsoni; control group, 4th amitrase treatment (30 mg), total, bee family No. 1
  Number of perished mites, Total: 62
Varroa jacobsoni; control group, 4th amitrase treatment (30 mg), total, bee family No. 2
  Number of perished mites, Total: 55
Varroa jacobsoni; control group, 4th amitrase treatment (30 mg), total, bee family No. 3
  Number of perished mites, Total: 37
Varroa jacobsoni; treatment 1, 24 h after treatment, bee family No. 1
  Number of perished mites: 164
Varroa jacobsoni; treatment 1, 24 h after treatment, bee family No. 2
  Number of perished mites: 241
Varroa jacobsoni; treatment 1, 24 h after treatment, bee family No. 3
  Number of perished mites: 190
Varroa jacobsoni; treatment 1, 48 h after treatment, bee family No. 1
  Number of perished mites: 3
Varroa jacobsoni; treatment 1, 48 h after treatment, bee family No. 2
  Number of perished mites: 12
Varroa jacobsoni; treatment 1, 48 h after treatment, bee family No. 3
  Number of perished mites: 3
Varroa jacobsoni; treatment 1, 72 h after treatment, bee family No. 1
  Number of perished mites: 0
Varroa jacobsoni; treatment 1, 72 h after treatment, bee family No. 2
  Number of perished mites: 1
Varroa jacobsoni; treatment 1, 72 h after treatment, bee family No. 3
  Number of perished mites: 0
Varroa jacobsoni; treatment 1, total, bee family No. 1
  Number of perished mites, Total: 167
Varroa jacobsoni; treatment 1, total, bee family No. 2
  Number of perished mites, Total: 254
Varroa jacobsoni; treatment 1, total, bee family No. 3
  Number of perished mites, Total: 193
Varroa jacobsoni; treatment 2, 24 h after treatment, bee family No. 1
  Number of perished mites: 68
Varroa jacobsoni; treatment 2, 24 h after treatment, bee family No. 2
  Number of perished mites: 87
Varroa jacobsoni; treatment 2, 24 h after treatment, bee family No. 3
  Number of perished mites: 37
Varroa jacobsoni; treatment 2, 48 h after treatment, bee family No. 1
  Number of perished mites: 0
Varroa jacobsoni; treatment 2, 48 h after treatment, bee family No. 2
  Number of perished mites: 3
Varroa jacobsoni; treatment 2, 48 h after treatment, bee family No. 3
  Number of perished mites: 1
Varroa jacobsoni; treatment 2, 72 h after treatment, bee family No. 1
  Number of perished mites: 0
Varroa jacobsoni; treatment 2, 72 h after treatment, bee family No. 2
  Number of perished mites: 1
Varroa jacobsoni; treatment 2, 72 h after treatment, bee family No. 3
  Number of perished mites: 0
Varroa jacobsoni; treatment 2, total, bee family No. 1
  Number of perished mites, Total: 68
Varroa jacobsoni; treatment 2, total, bee family No. 2
  Number of perished mites, Total: 91
Varroa jacobsoni; treatment 2, total, bee family No. 3
  Number of perished mites, Total: 38
Varroa jacobsoni; treatment 3, 24 h after treatment, bee family No. 1
  Number of perished mites: 21
Varroa jacobsoni; treatment 3, 24 h after treatment, bee family No. 2
  Number of perished mites: 35
Varroa jacobsoni; treatment 3, 24 h after treatment, bee family No. 3
  Number of perished mites: 24
Varroa jacobsoni; treatment 3, 48 h after treatment, bee family No. 1
  Number of perished mites: 0
Varroa jacobsoni; treatment 3, 48 h after treatment, bee family No. 2
  Number of perished mites: 2
Varroa jacobsoni; treatment 3, 48 h after treatment, bee family No. 3
  Number of perished mites: 1
Varroa jacobsoni; treatment 3, 72 h after treatment, bee family No. 1
  Number of perished mites: 0
Varroa jacobsoni; treatment 3, 72 h after treatment, bee family No. 2
  Number of perished mites: 0
Varroa jacobsoni; treatment 3, 72 h after treatment, bee family No. 3
  Number of perished mites: 2
Varroa jacobsoni; treatment 3, total, bee family No. 1
  Number of perished mites, Total: 21
Varroa jacobsoni; treatment 3, total, bee family No. 2
  Number of perished mites, Total: 37
Varroa jacobsoni; treatment 3, total, bee family No. 3
  Number of perished mites, Total: 27
Varroa jacobsoni; treatment 4: amitrase (30 mg) after 3 treatments with Example 8a) broth, 24 h, bee family No. 1
  Number of perished mites: 225
Varroa jacobsoni; treatment 4: amitrase (30 mg) after 3 treatments with Example 8a) broth, 24 h, bee family No. 2
  Number of perished mites: 134
Varroa jacobsoni; treatment 4: amitrase (30 mg) after 3 treatments with Example 8a) broth, 24 h, bee family No. 3
  Number of perished mites: 94
Varroa jacobsoni; treatment 4: amitrase (30 mg) after 3 treatments with Example 8a) broth, 48 h, bee family No. 1
  Number of perished mites: 24
Varroa jacobsoni; treatment 4: amitrase (30 mg) after 3 treatments with Example 8a) broth, 48 h, bee family No. 2
  Number of perished mites: 4
Varroa jacobsoni; treatment 4: amitrase (30 mg) after 3 treatments with Example 8a) broth, 48 h, bee family No. 3
  Number of perished mites: 11
Varroa jacobsoni; treatment 4: amitrase (30 mg) after 3 treatments with Example 8a) broth, 72 h, bee family No. 1
  Number of perished mites: 0
Varroa jacobsoni; treatment 4: amitrase (30 mg) after 3 treatments with Example 8a) broth, 72 h, bee family No. 2
  Number of perished mites: 1
Varroa jacobsoni; treatment 4: amitrase (30 mg) after 3 treatments with Example 8a) broth, 72 h, bee family No. 3
  Number of perished mites: 0
Varroa jacobsoni; treatment 4: amitrase (30 mg) after 3 treatments with Example 8a) broth, total, bee family No. 1
  Number of perished mites, Total: 249
Varroa jacobsoni; treatment 4: amitrase (30 mg) after 3 treatments with Example 8a) broth, total, bee family No. 2
  Number of perished mites, Total: 139
Varroa jacobsoni; treatment 4: amitrase (30 mg) after 3 treatments with Example 8a) broth, total, bee family No. 3
  Number of perished mites, Total: 105
Apis mellifera
  LD50: 12 microgram/bee
